Results on seven molecules are retold here after publication PMC9146163, “Novel Au Carbene Complexes as Promising Multi-Target Agents in Breast Cancer Treatment” (Pharmaceuticals, 2022).

SMILES strings stand for the structures. Read-outs that look alike come from different tables or passages of the source. A value given as a limit tells only on which side of the number the result lay.

One data set concerns MDA-MB-231 cells. Briefly: MTT assay, MDA-MB-231. Type of data set: cell-based, human. Particulars: read-out: IC50 MDA-MB-231. The protocol: (§1) The five employed cell lines were purchased from American Type Culture Collection (ATCC, Manassas, VA, USA) and maintained as already reported. MCF-7, MDA-MB-231, MCF-10A and Hek-293 were cultured, as indicated by Iacopetta et al.. SkBr3 cells were maintained in DMEM high glucose, supplemented with 10% FBS and 100 μg/mL penicillin/streptomycin.
(§2) MTT assays [Sigma Aldrich (St.Louis, MO, USA)] were used in order to determine the in vitro anticancer activities of all the target compounds, as already reported.The compounds were tested at different concentrations (0.1-1-10-20-40 µM) for 72 h. Results are represented as percent (%) of basal and the IC50 values were calculated using GraphPad Prism 9 (GraphPad Software, La Jolla, CA, USA).
In general terms: Tetrazolium dyes change colour on reduction, which living cells bring about.

Another data set deals with MCF-7 cells. Nature of the data set: MTT assay, MCF-7. Format: cell-based, human. The following applies: read-out: IC50 MCF-7. The procedure: as §1, §2
The test system of the next data set is SkBr3 cells. Briefly: MTT assay, SkBr3. Format: cell-based, human. The following applies: read-out: IC50 SkBr3. The procedure:
as §1, §2

Data set [1] can be described thus: LogP determination (1-octanol/water, UV/vis). The following applies: log[complex]oct/[complex]H2O, 55 μM, UV-Vis. Type of data set: physicochemical. The protocol: The logarithm of the partition coefficient (LogP) was evaluated by making a slight modification to the procedure reported in ref. [79]. Equal volumes of 1-octanol and water (distilled after milli-Q purification) were stirred for 20 h at room temperature. Then, they were separated to give 1-octanol-saturated water and water-saturated 1-octanol. Six (10, 20, 40, 50, 60 and 100 μM) standard concentrations of the compounds were prepared from the water-saturated 1-octanol. Analysis using UV/vis spectroscopy was used to obtain a calibration curve of absorbance vs. concentration. For each complex, a solution was prepared in the water-saturated 1-octanol (55 μM) and an equal volume of 1-octanol-saturated water was added. The solutions (biphasic) were mixed for 15 min and then centrifuged for 1h at 6500 rpm to allow separation.
Concentration in water-saturated 1-octanol was determined by UV-Vis spectroscopy. Reported LogP is defined as log[complex]oct/[complex]H2O.

A further data set deals with MCF-10A cells. Nature of the data set: MTT assay, normal MCF-10A. Format: cell-based, human. The following applies: 72 h, read-out: IC50 MCF-10A. The protocol: (§3) The five employed cell lines were purchased from American Type Culture Collection (ATCC, Manassas, VA, USA) and maintained as already reported. […] SkBr3 cells were maintained in DMEM high glucose, supplemented with 10% FBS and 100 μg/mL penicillin/streptomycin.
[…] Results are represented as percent (%) of basal and the IC50 values were calculated using GraphPad Prism 9 (GraphPad Software, La Jolla, CA, USA).

The next data set concerns vimentin in MCF-7 cells. Nature of the data set: Vimentin expression (immunofluorescence), MCF-7. Type of data set: cell-based, human. Particulars: fluorescence quantification; IC50 value, 24 h. The protocol:
(§4) The MitoTracker Deep Red FM probe (MitoTracker Mitochondrion-Selective Probes, Invitrogen European Headquarters, Paisley, PA4 9RF, UK) was used for mitochondrial staining, as previously described. For immunofluorescence analysis, the cells were seeded and further processed, as reported by Iacopetta et al.. The primary antibodies used were: rabbit anti-β-Actin and vimentin (Santa Cruz Biotechnology, Dallas, TX, USA), mouse anti cytochrome c and NF-κB p65 (Abcam, Cambridge, UK), diluted 1:100 in bovine serum albumin (BSA) 2% overnight at 4 °C. The secondary antibodies were: Alexa Fluor® 488 conjugate goat-anti-rabbit and Alexa Fluor® 568 conjugate goat-anti-mouse (Thermo Fisher Scientific, MA, USA), diluted 1:500 and incubated for 2h at 37 °C. DAPI 0.2 μg/mL (Sigma Aldrich, Milan, Italy) was used for nuclei staining. […] All the images were acquired and processed using the LAS-X software.
Protein lysates underwent the SDS-PAGE process, as already defined. Then lysates were resolved on a 7.5% SDS polyacrylamide gel, transferred to a nitrocellulose membrane, and probed with antibodies against vimentin and GAPDH (Santa Cruz Biotechnology, Dallas, TX, USA). […] The images are representative of three independent experiments.

Data set [2] concerns Hek-293 cells. Nature of the data set: MTT assay, normal Hek-293. Type of data set: cell-based, human. Particulars: read-out: IC50 Hek-293. The procedure: as §3, §2
Data set [3] concerns the target T1, Labeled Rabbit Muscle Actin (Oryctolagus cuniculus, UniProt P68135).
T1 construct: purchased Abcam (Actin Polymerization/Depolymerization Assay Kit)
Nature of the data set: In vitro actin depolymerization assay. Type of data set: biochemical. Particulars: for effect on already polymerized actin (in words): 5 µM. The protocol:
(§5) The ability of the tested compounds to interfere with the actin polymerization and depolymerization reaction was measured using an Actin Polymerization/Depolymerization Assay Kit purchased from Abcam, following the manufacturer’s instructions. […] For the polymerization assay, reconstituted actin was mixed with supplemented Buffer G and samples in a white 96-well plate and then the polymerization reaction was induced with the addition of the Buffer P supplemented with 10 mM ATP. The solution was mixed and the data acquisition started. For the Actin Depolymerization Assay, supplemented Buffers P and G were mixed and incubated in a white 96-well plate at room temperature for one hour to polymerize the actin, protected from light. Then samples were added and the data acquisition started. Latrunculin A and Cytochalasin B were used as control molecules at a concentration of 5 μM. For both the assays, the assembly of actin filaments was determined by measuring the fluorescence (Ex/Em: 365/410 nm) in kinetic mode for 1 h at room temperature using a microplate reader.

The next data set has as its system β-actin in MCF-10A cells. Briefly: Actin immunofluorescence, MCF-10A. Format: cell-based, human. Particulars: 24 h; compounds at their IC50 value, LA 0.1 μM. The protocol: as §4
E: Figure S1. Actin immunofluorescence studies in MCF-10A cells […]
Figure S1. Actin immunofluorescence studies. M CF-10A cells were treat ed with compounds 1 and […]
treatment, the cells were methanol fixed, incubated with primary and secondary antibodies, stained with DAPI and observed and imaged under the inverted fluorescence microscope at 20x […]
A: nuclear stain with DAPI (λex/λem = 350/460 nm); Panels B: β-actin ([…]); Panels C: show a merge. R epresentative fields are shown.

For data set [4], the system named is Hek-293 cells. Briefly: MTT assay, normal Hek-293. Type of data set: cell-based, human. Particulars: up to the concentration of 200 μM.
Data set [5] relates to β-actin in MDA-MB-231 cells. Nature of the data set: Actin immunofluorescence, MDA-MB-231. Format: cell-based, human. Particulars: 24 h; compound 1 at its IC50 value, LA 0.1 µM. The protocol: as §4
For data set [6], the target named is T1, Labeled Rabbit Muscle Actin. Briefly: In vitro actin polymerization assay. Format: biochemical. The following applies: 5 µM; for actin polymerization curve, final value: end of 1 h kinetic read, control about 37.000 RFU. The protocol:
as §5

The next data set has as its system β-actin in MCF-7 cells. Briefly: Actin immunofluorescence, MCF-7. Particulars: 24 h; compound 6 at its IC50 value, LA 0.1 µM. Format: cell-based, human. The procedure: as §4
Setting [7] is: MTT, 72 h, normal cells, mean ± SD.

What is called IC50 is the midpoint of a concentration-inhibition curve. What is called LogP is the decadic logarithm of the partition coefficient of the neutral form, usually between octanol and water. Regarding `CC(=O)[O-].Cn1ccn(CC([O-])c2ccccc2)[c]1=[Au+]=[c]1n(C)ccn1CC([O-])c1ccccc1.[Na+].[Na+]` (centres unmarked) [Compound 2], the 50% inhibitory concentration (IC50) with MDA-MB-231 cells (MTT, 72 h, mean ± SD) was 22.6 ± 1.1 µM; in the data set with MCF-7 cells (MTT, 72 h, mean ± SD), 30.6 ± 0.7 µM; in the data set with SkBr3 cells (MTT, 72 h, mean ± SD), 38.4 ± 0.4 µM; in the data set on MCF-10A cells (MTT, normal cells, mean ± SD), 39.6 ± 0.5 µM; with Hek-293 cells [2] (setting [7]) it was above 200 µM. In data set [1], this molecule yielded a LogP of 0.047. In the data set with vimentin in MCF-7 cells, the “reduction of vimentin expression with respect to the control, MCF-7” value is listed as “two times lower”.
Consider `C/C1=C/C(=O)O[C@@H]2C[C@@H](CC[C@H](C)/C=C\C=C\CC1)O[C@@](O)([C@@H]1CSC(=O)N1)C2` [Latrunculin A, reference compound], for which the IC50 worked out at 0.024 µM in the data set on MDA-MB-231 cells (Homo sapiens, MDA-MB-231, 72 h); 0.14 µM in the data set on MCF-7 cells (Homo sapiens, MCF7, 72 h); 0.7 ± 1.2 µM with SkBr3 cells (Homo sapiens, SK-BR-3, 72 h); 0.045 µM in the data set with MCF-10A cells (Homo sapiens, MCF-10A); 0.093 µM in the data set with Hek-293 cells [2] (Homo sapiens, HEK293, 72 h). In addition, the “effect on already polymerized actin (in words)” value in [3] was “triggered the actin depolymerization”. Also, the “actin depolymerization curve, end value” in data set [3] (5 µM added to actin polymerized for one hour, followed for another hour) stood at 14.000 RFU. Further, the “actin depolymerization curve, value after the net decrease at about seven minutes” value in data set [3] (5 µM added to actin polymerized for one hour, initial value around 28.000 RFU) is “about 16.800 RFU”. The “actin organization in MCF-10A cells” value in the data set on β-actin in MCF-10A cells is “aberrant actin arrangement”. Moreover, the “cytotoxicity against the normal Hek-293 cells (in words)” value in the data set on Hek-293 cells [4] was “drastically reduced”. For the same molecule, in data set [5], the “actin organization in MDA-MB-231 cells” value is reported as “complete disorganization of the actin system”. Further, the “actin polymerization curve, value 14 min after the reaction started” value in data set [6] is given as “about 12.000 RFU”. Also, in data set [6], the “effect on actin polymerization (in words)” value is on record as “impeded the actin polymerization”. Besides, the “actin polymerization curve, final value” in data set [6] was “about 10.000 RFU”. In addition, the “actin organization in MCF-7 cells” value in the data set on β-actin in MCF-7 cells is “complete disorganization of the actin system”.
In the case of `CC(=O)[O-].Cn1ccn(CC(O)c2ccccc2)[c]1=[Au+]=[c]1n(C)ccn1CC(O)c1ccccc1` (centres unmarked) [Compound 5], the IC50 in the data set with MDA-MB-231 cells (MTT, 72 h, mean ± SD) is 58.5 ± 1.2 µM; in the data set on MCF-7 cells (MTT, 72 h, mean ± SD), 21.9 ± 0.5 µM; in the data set on SkBr3 cells (MTT, 72 h, mean ± SD), 58.9 ± 1.2 µM; in the data set on MCF-10A cells (MTT, normal cells, mean ± SD), 27.8 ± 0.7 µM; with Hek-293 cells [2] (setting [7]) it was above 200 µM. Besides, the lipophilicity (LogP) in data set [1] is reported as 0.12.
As for `CC(=O)[O-].COC(Cn1ccn(C)[c]1=[Au+]=[c]1n(C)ccn1CC(OC)c1ccccc1)c1ccccc1` (centres unmarked) [Compound 4, Bis [(N-methyl, N’(2-methoxy-2-phenyl-ethyl)imidazole-2-ylidine]gold(I)] acetate], the IC50 in the data set on MDA-MB-231 cells (MTT, 72 h, mean ± SD) was determined as 3 ± 0.7 µM; with MCF-7 cells (MTT, 72 h, mean ± SD), 9.4 ± 0.6 µM; in the data set with SkBr3 cells (MTT, 72 h, mean ± SD) it was 2.6 ± 0.7 µM; with MCF-10A cells (MTT, normal cells, mean ± SD), 5.2 ± 0.9 µM; in the data set on Hek-293 cells [2] (setting [7]), 7.6 ± 1 µM.
The corresponding values for `N.N.[Cl][Pt][Cl]` [Cisplatin, reference compound] are 28.7 ± 0.4 µM, 35.8 ± 0.7 µM, 7.4 ± 0.9 µM, 81.3 ± 0.6 µM and 16.3 ± 0.9 µM.
For `C=C1[C@@H](C)[C@H]2[C@H](Cc3ccccc3)NC(=O)[C@]23OC(=O)/C=C/[C@H](O)CCC[C@@H](C)C/C=C/[C@H]3[C@@H]1O` [cytochalasin B], in [3], the “effect on already polymerized actin (in words)” value is “did not produce a significant decrease”. Moreover, in data set [6], the “effect on actin polymerization (in words)” value is “impeded the actin polymerization” and the “actin polymerization curve, final value” is given as “ended almost at the same RFU value of the beginning”.
As to `COC(Cn1ccn(C)[c]1=[Au+]=[c]1n(C)ccn1CC(OC)c1ccccc1)c1ccccc1.[Cl-]` (centres unmarked) [Compound 3], the IC50 in the data set on MDA-MB-231 cells (MTT, 72 h, mean ± SD) amounted to 2.2 ± 1.1 µM; in the data set on MCF-7 cells (MTT, 72 h, mean ± SD), 3.3 ± 1.4 µM; in the data set with SkBr3 cells (MTT, 72 h, mean ± SD), 10.9 ± 0.7 µM; in the data set with MCF-10A cells (MTT, normal cells, mean ± SD) it was 13.3 ± 1 µM; in the data set on Hek-293 cells [2] (setting [7]) it was 39 ± 0.9 µM. The molecule also returned a lipophilicity (LogP) in [1] of 0.62.
